In series [1] the test system is audiogenic seizure-sensitive juvenile DBA/2J mice. Kind of series: Audiogenic seizure-sensitive juvenile DBA/2J mouse model of generalized tonic-clonic seizures. The class given is in vivo. Also on record: key: 0 none, 1 wild running, 2 clonus, 3 hind-limb tonic extension. Particulars: oral gavage, mean ± SEM. The text has this: Audiogenic Seizure-Sensitive Juvenile DBA/2J Mouse Model of Generalized Tonic-Clonic Seizures
The inbred DBA/2J mouse strain carries an increased general susceptibility for acute generalized convulsive seizures induced by either pharmacological, electrical or, as juvenile, auditory stimuli. At the age of 17 to 28 days (juvenile), they show tonic-clonic convulsions when exposed to a loud tone.
Male juvenile DBA/2J mice (22-24 days old, body weight between 6.6 and 14.5 grams) were used. Each mouse was placed individually in the exposure chamber, an hemispheric acrylic glass dome (diameter: 50 cm) within a sound-attenuated box. After 60 seconds of habituation, an auditory stimulus of mixed frequency tone (15-20 kHz at 110 dB) was played from a speaker placed on the top center of the dome.
The sound-attenuated box was equipped with lights and a camera system in order to observe and record the behavioral seizure response classified as following: • stage 0, no response • stage 1, wild running • stage 2, clonus • stage 3, tonic extension of the hind limbs.
(§1) Different combination efficacy experiments are performed. […] Each experiment consists of four treatment groups: • 1. Vehicle (10% Polyethylene glycol400 (PEG400)/90% methylcellulose (0.5% in water; MC0.5%)), 3 h before exposure to the auditory stimulus+vehicle, 1 h before exposure to the auditory stimulus; • 2. COMPOUND 1 (in 10% PEG400/90% MC0.5%), 3 h before exposure to the auditory stimulus+vehicle, 1 h before exposure to the auditory stimulus; • 3. Vehicle, 3 h before exposure to the auditory stimulus+AED (in 10% PEG400/90% MC0.5%), 1 h before exposure to the auditory stimulus; and • 4. COMPOUND 1 (in 10% PEG400/90% MC0.5%), 3 h before exposure to the auditory stimulus+AED (in 10% PEG400/90% MC0.5%), 1 h before exposure to the auditory stimulus.

Series [2] can be described thus: Plasma and brain concentrations of drugs at the end of the audiogenic seizure experiment (LC-MS). To be noted: for concentration at 1 h: DBA/2J, mouse, oral. The class given is in vivo, mouse. On the procedure:
Briefly, blood was sampled from the vena cava caudalis with a syringe pre-filled with EDTA (ethylenediamine tetraacetic acid) as anticoagulant and centrifuged to yield plasma (for 10 minutes, at 4° C. and 5000 rpm (rounds per minute)). Brain was sampled and homogenized into one volume of cold phosphate buffer (pH 7.4). Following extraction with methanol, concentrations of the compound in plasma and brain were determined using liquid chromatography coupled to mass spectrometry.
as §1

Setting [3] is: analyte LTG, vehicle 3 h + LTG 10 mg/kg 1 h before stimulus, oral gavage, mean ± SEM.

Read-outs that look alike come from different tables or passages of the source.

Consider `Nc1nnc(-c2cccc(Cl)c2Cl)c(N)n1` [LTG, 6-(2,3-dichlorophenyl)-1,2,4-triazine-3,5-diamine], for which the “Seizure stage (maximal seizure stage observed during exposure to auditory stimulus)” value in series [1] (vehicle 3 h + LTG 3 mg/kg 1 h before stimulus) is 1.9 ± 0.2; in series [1] (vehicle 3 h + LTG 3 mg/kg 1 h before stimulus, listed as lamotrigine), 2; in series [1] (vehicle 3 h + LTG 30 mg/kg 1 h before stimulus), 0.2 ± 0.2 #. Moreover, in series [2] (COMPOUND 1 and lamotrigine, juvenile DBA/2J mice), the “plasma and brain concentrations after administration of the compounds alone or in combination” value is on record as “similar”. For the same molecule, the concentration at 1 h in series [2] (brain, 3 mg/kg, analyte LTG, vehicle 3 h + LTG 3 mg/kg 1 h before stimulus, oral gavage, mean ± SEM, read-out: Brain concentration total) worked out at 1490 ± 128 ng/g; in series [2] (brain, 10 mg/kg, analyte LTG, vehicle 3 h + LTG 10 mg/kg 1 h before stimulus, oral gavage, mean ± SEM, read-out: Brain concentration total), 3260 ± 144 ng/g; in series [2] (brain, 30 mg/kg, analyte LTG, vehicle 3 h + LTG 30 mg/kg 1 h before stimulus, oral gavage, mean ± SEM, read-out: Brain concentration total), 8890 ± 248 ng/g; in series [2] (brain, analyte LTG, COMPOUND 1 10 mg/kg 3 h + LTG 10 mg/kg 1 h before stimulus, oral gavage, mean ± SEM, read-out: Brain concentration total), 3690 ± 393 ng/g; in series [2] (brain, analyte LTG, COMPOUND 1 30 mg/kg 3 h + LTG 3 mg/kg 1 h before stimulus, oral gavage, mean ± SEM, read-out: Brain concentration total), 1370 ± 100 ng/g; in series [2] (brain, analyte LTG, COMPOUND 1 30 mg/kg 3 h + LTG 10 mg/kg 1 h before stimulus, oral gavage, mean ± SEM, read-out: Brain concentration total) it was 3660 ± 310 ng/g. For the same molecule, the concentration at 1 h in series [2] (brain, analyte LTG, COMPOUND 1 30 mg/kg 3 h + LTG 30 mg/kg 1 h before stimulus, oral gavage, mean ± SEM, read-out: Brain concentration total) came out at 8560 ± 853 ng/g; in series [2] (plasma, 3 mg/kg, analyte LTG, vehicle 3 h + LTG 3 mg/kg 1 h before stimulus, oral gavage, mean ± SEM, read-out: Plasma concentration total), 293 ± 27 ng/mL; in series [2] (plasma, 10 mg/kg, analyte LTG, vehicle 3 h + LTG 10 mg/kg 1 h before stimulus, oral gavage, mean ± SEM, read-out: Plasma concentration total) it was 930 ± 77 ng/mL; in series [2] (plasma, 30 mg/kg, analyte LTG, vehicle 3 h + LTG 30 mg/kg 1 h before stimulus, oral gavage, mean ± SEM, read-out: Plasma concentration total) it was 3560 ± 165 ng/mL; in series [2] (plasma, analyte LTG, COMPOUND 1 10 mg/kg 3 h + LTG 10 mg/kg 1 h before stimulus, oral gavage, mean ± SEM, read-out: Plasma concentration total), 859 ± 101 ng/mL; in series [2] (plasma, analyte LTG, COMPOUND 1 30 mg/kg 3 h + LTG 3 mg/kg 1 h before stimulus, oral gavage, mean ± SEM, read-out: Plasma concentration total), 284 ± 18 ng/mL. Also, the concentration at 1 h in series [2] (plasma, analyte LTG, COMPOUND 1 30 mg/kg 3 h + LTG 10 mg/kg 1 h before stimulus, oral gavage, mean ± SEM, read-out: Plasma concentration total) was 1330 ± 102 ng/mL; in series [2] (plasma, analyte LTG, COMPOUND 1 30 mg/kg 3 h + LTG 30 mg/kg 1 h before stimulus, oral gavage, mean ± SEM, read-out: Plasma concentration total), 2800 ± 475 ng/mL. Moreover, in series [2] (setting [3]), the Brain concentration total stood at 4054 ± 323 ng/g. The Plasma concentration total in series [2] (setting [3]) was found to be 1203 ± 77 ng/mL.
